Experimental data reported in US12043602B2, “Fendiline derivatives” (The Board of Regents of the University of Texas System, priority 2019, dated 2024).
Where “and” joins values, the source holds several entries; their conditions need not be identical. Equal entries are not always repeated. Entries after “also recorded” stand apart in the source; their conditions may differ. Where two headings read alike, the source gives them in different places.

How the values were obtained:
[1] = system: BxPC-3 (WT) pancreatic tumor cells; assay: CyQUANT proliferation assay; format: cell-based; settings: Homo sapiens
Protocol: (§1) Madine Darby Canine Kidney epithelial cells (MDCK) stably co-expressing mGFP-tagged full length oncogenic mutant K-Ras (GFP—K-RASG12V) or mGFP-LactC2 (peptide probe for phosphatidylserine) and mCherry-tagged to the amino acids 179-189 of H-RasC181S, C184S (mCherry-CAAX, localizes primarily to endomembranes) were grown in DMEM-high glucose/sodium pyruvate/10% FBS. The medium was supplemented with 1× Penicillin/Streptomycin for fluorescence microscopy assays, to avoid any microbial contamination from the test compounds added. KLE and Hec50 cells were maintained in DMEM-F-12 medium supplemented with 10% FBS. Hec-1A and Hec-1B cells were grown in McCoy's 5a medium supplemented with 10% FBS. ESS-1 cells were grown in RPMI 1640 medium supplemented with 20% FBS. MPanc96 cells were grown in DMEM supplemented with 10% FBS, MiaPaCa-2 cells in DMEM supplemented with 10% FBS and 2.5% horse serum and all other cell lines were grown in RPMI 1640 supplemented with 10% FBS. All cancer cell media were supplemented with ×Penicillin/Streptomycin. All cell lines were grown at 37° C. with 5% CO2.
(§2) Cells were seeded in 96-well plates. After 24 h, fresh growth medium supplemented with 0.1% vehicle (DMSO), or various concentrations of drugs was added and cells were grown for 72 h. Cell numbers were quantified using the CyQUANT® Cell Proliferation Assay Kit (Molecular Probes, Life Technologies), according to the manufacturer's protocol. Fluorescence measurement was used as a measure of live cell number.

[2] = system: MiaPaCa-2 (Mut) pancreatic tumor cells; assay: CyQUANT proliferation assay; format: cell-based; settings: Homo sapiens
Protocol: as §1, §2

[3] = system: MOH (Mut) pancreatic tumor cells; assay: CyQUANT proliferation assay; format: cell-based
Summary of the method: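 Live cell number was estimated by CyQUANT fluorescence at the end of a 72 h drug treatment begun one day after plating. Cultures were maintained in 10% FBS-supplemented RPMI 1640 with antibiotics under 5% CO2; controls received 0.1% DMSO.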

[4] = system: MPanc96 (Mut) pancreatic tumor cells; assay: CyQUANT proliferation assay; format: cell-based
Protocol: as §1, §2

[5] = system: NCI H522 (WT) lung tumor cells; assay: CyQUANT proliferation assay; format: cell-based; settings: Homo sapiens
Protocol: as §1, §2

[6] = system: ESS-1 (WT) endometrial tumor cells; assay: CyQUANT proliferation assay; format: cell-based; set-up: key: NE—Not efficacious; settings: 72 h
Protocol: as §1, §2

[7] = system: KLE (WT) endometrial tumor cells; assay: CyQUANT proliferation assay; format: cell-based; set-up: key: NE—Not efficacious; settings: 72 h
Protocol: as §1, §2

blood vessels in tumors = assay: Blood vessel lumen area in tumor sections; set-up: species or system nu/nu mice; settings: mouse, in vivo
Protocol: FIG. 8A-E. (A) Nu/nu mice implanted with MiaPaCa-2 tumors were treated with vehicle (DMSO) or compounds intraperitoneally and tumor sizes were measured with an external caliper every 3-4 days. (B) Tumor sections were stained with GFP-Lys. (C) Tumor sections were stained with antibodies against pERK. (D) Tumor sections were stained with cleaved caspase 3. (E) Blood vessel lumen area was also measured in tumor sections.
Immunohistochemistry. 4-5 μm sections were deparaffinized, rehydrated, and treated with 10 mM sodium citrate for heat induced antigen retrieval. After quenching endogenous peroxidase, and blocking with 2.5% normal goat serum (Vector Laboratories S-1012), sections were incubated overnight at 4° C. with primary antibody diluted in blocking solution as recommended by manufacturer (Cell Signaling). Controls were incubated with diluted normal rabbit IgG. After incubation with biotinylated secondary antibody diluted 1:250 in blocking serum for 45 min at rt, sections were incubated with VECTASTAIN ABC reagent for 30 min, and for development of the DAB chromogen the Quanto substrate was used. Slides were counter stained with Hematoxylin. Five fields per stained section per xenograft were photographed at 10X. CC3+ and pERK+ area and number of events per field were quantitated via automated image analysis (NIS Elements BR analysis ver. 4.13.04). Vessel number and lumen area per field used the same software with manual settings to trace vessel wall contours. Antibodies used are as follows: CC3: Cell Signaling #9661, use at 1:300. (Cleaved Caspase-3 (Asp175) Antibody. Rabbit polyclonal. pERK: Cell Signaling #4370: Phospho-p44/42 MAPK (Erk1/2) (Thr202/Tyr204) (D13.14.4E) XP Rabbit mAB. CD31 (PECAM-1) (D8V9E) XP Rabbit mAB (Cell signal # (Cell signal #77699). Normal rabbit IgG: Santa Cruz #sc-3888. Concentration is 50 μg/mL or 50 ng/μL. Prepared with 5 μg in 200 μL blocking solution. Goat Anti-Rabbit IgG Biotin Conjugate: Calbiochem #OS03B, Concentration=1.2 mg/mL. Recommended to be used for IHC at 1 μg/mL.

mGFP-K-RASG12V = mGFP-K-RASG12V (Homo sapiens (Human), UniProt P01116, G12V); assay: K-Ras mislocalization assay (confocal microscopy, Manders coefficient); format: cell-based; set-up: key to Emax: Manders coefficient: fraction of mCherry-CAAX co-localizing with GFP-K-Ras; settings: for IC50 / Emax: MDCK cells; for Emax: maximal effect, Manders coefficient
Summary of the method: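 MDCK cells stably co-expressing mGFP-K-RASG12V and mCherry-CAAX (endomembrane marker) treated with compound or 0.1% DMSO for 48 h, fixed in 4% paraformaldehyde, imaged by confocal microscopy. Mislocalization quantified as the fraction of mCherry-CAAX co-localizing with mGFP-K-RASG12V (Manders coefficient) after 8-bit thresholding.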

[8] = system: HPAC (Mut) pancreatic tumor cells; assay: CyQUANT proliferation assay; format: cell-based; settings: Homo sapiens, HPAC, 72 h
Protocol: as §1, §2

[9] = BXPC-3, 72 h, read-out: IC50 proliferation BxPC-3 (WT)
[10] = BXPC-3, Table 11, pancreatic, read-out: IC50 (μM) BxPC-3 (WT)
[11] = MIA PaCa-2, 72 h, read-out: IC50 proliferation MiaPaCa-2 (Mut)
[12] = MIA PaCa-2, Table 11, pancreatic, read-out: IC50 (μM) MiaPaCa-2 (Mut)
[13] = 72 h, read-out: IC50 proliferation MOH (Mut)
[14] = Table 11, pancreatic, read-out: IC50 (μM) MOH (Mut)
[15] = MPANC96, 72 h, read-out: IC50 proliferation MPanc96 (Mut)
[16] = MPANC96, Table 11, pancreatic, read-out: IC50 (μM) MPanc96 (Mut)
[17] = NCI-H522, 72 h, read-out: IC50 proliferation NCI H522 (WT)
[18] = NCI-H522, Table 11, lung, read-out: IC50 (μM) NCI H522 (WT)
[19] = 48 h treatment, read-out: IC50 (μM), KRASG12V mislocalization

Row | Structure (SMILES) | IC50 [1, 9] [µM] | IC50 [1, 10] [µM] | IC50 [2, 11] [µM] | IC50 [2, 12] [µM] | IC50 [3, 13] [µM] | IC50 [3, 14] [µM] | IC50 [4, 15] [µM] | IC50 [4, 16] [µM] | IC50 [5, 17] [µM] | IC50 [5, 18] [µM] | IC50 proliferation ESS-1 (WT) [6] | IC50 proliferation KLE (WT) [7] | IC50 (mGFP-K-RASG12V; [19]) [µM] | Emax (mGFP-K-RASG12V; 48 h) | IC50 [8] [µM] | further results
1 | CC(NCCC(c1ccccc1)c1ccccc1)c1ccccc1 (centres unmarked) [Fendiline] | 28.6 | 28.6 ± 5.9 | 9.17 | 9.2 ± 0.6 | 11.1 | 11.1 | 10.8 | 10.8 | 29.6 | 29.6 ± 1.2 | NE | NE |  |  |  | blood vessel dilation / vasodilatory effect in tumors (blood vessels in tumors): dilated
2 | COc1ccc([C@@H](C)N(CC=C(c2ccccc2)c2ccccc2)CCN2CCN(C)CC2)cc1 [NY0244, (R)-N-(1-(4-methoxyphenyl)ethyl)-N-(2-(4-methylpiperazin-1-yl)ethyl)-3,3-diphenylprop-2-en-1-amine] | 5.73 | 5.7 | 3.03 | 3 | 3.67 | 3.7 | 4.22 | 4.2 | 28.2 | 28.2 | NE | NE | 0.1 | 0.75 ± 0.01 | 5.55 | Emax (mGFP-K-RASG12V; 48 h, listed as 12f): 0.75 and 0.75 ± 0.01; fold increase in KRAS mislocalization potency (mGFP-K-RASG12V; versus hit 7): 5 fold
3 | COc1ccc([C@@H](C)N(CC=C(c2ccccc2)c2ccccc2)CCN2CCCC2)cc1 [NY0331, (R)-N-(1-(4-methoxyphenyl)ethyl)-3,3-diphenyl-N-(2-(pyrrolidin-1-yl)ethyl)prop-2-en-1-amine] |  |  | 3.36 | 3.1 | 3.55 | 4 | 3.81 | 3.8 |  |  |  |  | 0.3 | 0.85 ± 0.04 | 5.15 | fold potency loss / decreased potency (mGFP-K-RASG12V; versus 12f (NY0244)): 3 fold; blood vessel dilation / vasodilatory effect in tumors (blood vessels in tumors; listed as 12h): no vasodilatory effects; also recorded: not changed
4 | COc1ccc([C@@H](C)N(CC=C(c2ccccc2)c2ccccc2)CCCN2CCN(C)CC2)cc1 [NY0335, (R)-N-(1-(4-methoxyphenyl)ethyl)-N-(3-(4-methylpiperazin-1-yl)propyl)-3,3-diphenylprop-2-en-1-amine] | 5.34 | 5.3 | 2.79 | 2.8 | 3.77 | 3.8 | 4.18 | 4.2 | 23.5 | 23.5 ± 3.2 | NE | NE | 0.02 |  | 5.81 | IC50 (mGFP-K-RASG12V; 48 h, read-out: KRAS mislocalization potency): 0.02 µM; Emax (mGFP-K-RASG12V; 48 h, listed as 22): 0.81; Emax (mGFP-K-RASG12V; 48 h, listed as NY335): 0.81 ± 0.01; blood vessel dilation / vasodilatory effect in tumors (blood vessels in tumors; listed as 22): no vasodilatory effects; also recorded: not changed
